Measured values from PMC5011342, “A high throughput drug screening assay to identify compounds that promote oligodendrocyte differentiation using acutely dissociated and purified oligodendrocyte precursor cells” (BMC Research Notes, 2016).
Read-outs that look alike come from different tables or passages of the source.

Assays:
[1] = system: acutely dissociated and purified rat OPCs; test: Acute OL differentiation assay (MBP expression/cell, immunofluorescent image quantification); type: cell-based; conditions: Rattus norvegicus
Summary of the method: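 Oligodendrocyte precursor cells were enriched from P6-P7 Sprague–Dawley rat brains by immunopanning (RAN-2 and GalC depletion, O4 selection), plated at 5000 cells/well in serum-free, mitogen-free differentiation media on PDL/laminin 96-well view plates, centrifuged at 200×g, and pre-incubated 1–2 h before test compounds were added in quadruplicate. On DIV4, cells were fixed, stained for MBP and DAPI, imaged automatically, and MBP expression per cell was quantified.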

expanded OPCs = test: cells; conditions: for viability at 0.1 µM / viability at 1 µM / viability at 10 µM: Rattus norvegicus, 72 h
Experimental: Having established a consistent assay for measuring OL differentiation in vitro, the next step was to utilize this assay to assess the ability of a wide array of compounds to promote OL differentiation. Prior to library screening, we first established the maximum non-toxic dose of each compound in the library. […] Therefore, we added each compound in the NIH clinical collection (NCC) library to OPCs at 10, 1, and 0.1 µM concentrations. Three days later, we assessed viability of the treated cells by measuring AlamarBlue fluorescence, a measure of cell viability (see “Methods” section). […] Appropriately, we established three sets of screening concentrations for library compounds: non-toxic compounds were tested at 10 and 2 µM, slightly toxic compounds (only toxic at 10 µM) were tested at 2 and 0.4 µM, and very toxic compounds were tested at 0.4 and 0.08 µM.
OPCs were expanded in vitro by seeding into PDL-coated tissue culture flasks at 1000–2000 cells/cm^2 in differentiation media supplemented with 10 ng/ml PDGF-AA. Proliferating OPCs were fed every 2–3 days and supplemented with 2–3× concentration of PDGF as needed to prevent OPC differentiation. After 6–7 days of proliferation, OPCs were harvested by trypsinization, plated into PDL-coated 96-well Falcon plates and centrifuged at 200×g to facilitate cell attachment, survival, and even distribution of cells. Expanded OPCs were seeded in differentiation media at 10,000 cells/well and incubated for 2 h at 37 °C, 10 % CO2 prior to addition of compounds. The NCC library was diluted and added to cells at 10, 1, and 0.1 µM; each concentration was tested in quadruplicate. As a positive control for the induction of toxicity, 5 ng/ml tunicamycin was added to 8 wells in each plate. Three days later, a 1:10 dilution of alamarBlue® (AB) was added to each well and cells were incubated 4 h at 37 °C, 10 % CO2. AB fluorescence was measured using a PerkinElmer Victor II fluorescence microplate reader (PerkinElmer, Waltham, MA) with 560 nm excitation/590 nm emission filters. For library screening, the highest concentration of each compound was adjusted to a minimally toxic concentration based on this toxicity data. Compounds were additionally tested at a second concentration that was 1/5th of the top concentration. The final concentration of DMSO in each well was 0.1 %.

[2] = test compound at 2 uM, MBP expression relative to quetiapine, NCC library screen, sheet "All OLga data", read-out: 2 uM (% Quet)
[3] = test compound at 10 uM, MBP expression relative to quetiapine, NCC library screen, sheet "All OLga data", read-out: 10 uM (% Quet)
[4] = alamarBlue viability of expanded OPCs, compound at 0.1 µM, relative to DMSO control
[5] = alamarBlue viability of expanded OPCs, compound at 1 µM, relative to DMSO control
[6] = alamarBlue viability of expanded OPCs, compound at 10 µM, relative to DMSO control
[7] = test compound at 2 uM, NCC library screen, sheet "All OLga data", relative to quetiapine, read-out: 2 uM (% Quet)
[8] = test compound at 10 uM, NCC library screen, sheet "All OLga data", relative to quetiapine, read-out: 10 uM (% Quet)
[9] = read-out: 0.1 µM (% DMSO), alamarBlue viability, NCC library compound at 0.1 µM, sheet "All Tox data"
[10] = read-out: 1 µM (% DMSO), alamarBlue viability, NCC library compound at 1 µM, sheet "All Tox data"
[11] = read-out: 10 µM (% DMSO), alamarBlue viability, NCC library compound at 10 µM, sheet "All Tox data"
[12] = 2 uM test compound, relative to quetiapine, sheet "All OLga data", read-out: OL differentiation, 2 uM (% Quet)
[13] = 10 uM test compound, relative to quetiapine, sheet "All OLga data", read-out: OL differentiation, 10 uM (% Quet)
[14] = read-out: 0.1 µM (% DMSO), alamarBlue viability of expanded OPCs, compound at 0.1 µM, sheet All Tox data
[15] = read-out: 1 µM (% DMSO), alamarBlue viability of expanded OPCs, compound at 1 µM, sheet All Tox data
[16] = read-out: 10 µM (% DMSO), alamarBlue viability of expanded OPCs, compound at 10 µM, sheet All Tox data

Compound: NS(=O)(=O)c1cc(C2(O)NC(=O)c3ccccc32)ccc1Cl (centres unmarked) [Chlorthalidone]
- activation at 2 µM [1, 2]: -5.8%
- activation at 10 µM [1, 3]: -2%
- 0.1 µM (% DMSO) (expanded OPCs; [4]): 92.5 % DMSO
- 1 µM (% DMSO) (expanded OPCs; [5]): 95.8 % DMSO
- 10 µM (% DMSO) (expanded OPCs; [6]): 81.7 % DMSO

Compound: O=P1(N(CCCl)CCCl)NCCCO1 (centres unmarked) [Cyclophosphamide]
- activation at 2 µM ([1]; read-out: 2 uM (% Quet)): 16.5%
- activation at 10 µM ([1]; read-out: 10 uM (% Quet)): 5.1%
- 0.1 µM (% DMSO) (expanded OPCs; rat): 90.6 % DMSO
- 1 µM (% DMSO) (expanded OPCs; rat): 100.6 % DMSO
- 10 µM (% DMSO) (expanded OPCs; rat): 97.0 % DMSO

Compound: CC(=O)[C@H]1CC[C@H]2[C@@H]3C[C@H](C)C4=CC(=O)CC[C@]4(C)[C@H]3[C@@H](O)C[C@]12C [Medrysone]
- activation at 2 µM [1, 7]: -6%
- activation at 10 µM [1, 8]: -16.5%
- viability at 0.1 µM (expanded OPCs; [9]): 130%
- viability at 1 µM (expanded OPCs; [10]): 125%
- viability at 10 µM (expanded OPCs; [11]): 121%

Compound: C[C@]12CC[C@H](O)CC1=CC[C@@H]1[C@@H]2CC[C@@]2(C)[C@H]1CC[C@]2(C)O [Methandriol]
- activation at 2 µM [1, 12]: 4.1%
- activation at 10 µM [1, 13]: -0.6%
- viability at 0.1 µM (expanded OPCs; [14]): 91.2%
- viability at 1 µM (expanded OPCs; [15]): 87.5%
- viability at 10 µM (expanded OPCs; [16]): 88%

Compound: NNCCc1ccccc1 [Phenelzine]
- activation at 2 µM [1, 12]: 18%
- activation at 10 µM [1, 13]: 18.6%
- activation at 2 µM [1, 2]: 3.7%
- activation at 10 µM [1, 3]: -4.2%
- viability at 0.1 µM (expanded OPCs; [14]): 78.4%
- viability at 1 µM (expanded OPCs; [15]): 80.2%
- viability at 10 µM (expanded OPCs; [16]): 93.1%
- 0.1 µM (% DMSO) (expanded OPCs; [4]): 94.0 % DMSO
- 1 µM (% DMSO) (expanded OPCs; [5]): 95.0 % DMSO
- 10 µM (% DMSO) (expanded OPCs; [6]): 87.1 % DMSO

Compound: NS(=O)(=O)c1cc2c(cc1Cl)N=CNS2(=O)=O [Chlorothiazide]
- activation at 2 µM [1, 7]: -11.1%
- activation at 10 µM [1, 8]: -11.8%
- 0.1 µM (% DMSO) (expanded OPCs; [4]): 88.9 % DMSO
- 1 µM (% DMSO) (expanded OPCs; [5]): 90.2 % DMSO
- 10 µM (% DMSO) (expanded OPCs; [6]): 89.0 % DMSO

Compound: Cc1ccc(N(CC2=NCCN2)c2cccc(O)c2)cc1 [Phentolamine]
- activation at 2 µM [1, 2]: -17.9%
- activation at 10 µM [1, 3]: -82.7%
- 0.1 µM (% DMSO) (expanded OPCs; [4]): 93.8 % DMSO
- 1 µM (% DMSO) (expanded OPCs; [5]): 88.6 % DMSO
- 10 µM (% DMSO) (expanded OPCs; [6]): 62.0 % DMSO

Compound: CN(C/C=C/C#CC(C)(C)C)Cc1cccc2ccccc12 [Terbinafine]
- activation at 0.4 µM ([1]; 0.4 uM test compound, relative to quetiapine, sheet "All OLga data", read-out: OL differentiation, 0.4 uM (% Quet)): -31.1%
- activation at 2 µM [1, 12]: -91.1%
- viability at 0.1 µM (expanded OPCs; [9]): 90.5%
- viability at 1 µM (expanded OPCs; [10]): 92.2%
- viability at 10 µM (expanded OPCs; [11]): 11%

Compound: CC(=O)OCC[N+](C)(C)C [Acetylcholine]
- activation at 2 µM [1, 2]: -4.4%
- activation at 10 µM [1, 3]: -7.7%
- 0.1 µM (% DMSO) (expanded OPCs; [4]): 87.6 % DMSO
- 1 µM (% DMSO) (expanded OPCs; [5]): 92.6 % DMSO
- 10 µM (% DMSO) (expanded OPCs; [6]): 87.0 % DMSO

Compound: CC(=O)S[C@@H]1CC2=CC(=O)CC[C@]2(C)[C@H]2CC[C@@]3(C)[C@@H](CC[C@@]34CCC(=O)O4)[C@H]12 [Spironolactone]
- activation at 2 µM [1, 7]: -13%
- activation at 10 µM [1, 8]: -65.1%
- 0.1 µM (% DMSO) (expanded OPCs; [4]): 88.4 % DMSO
- 1 µM (% DMSO) (expanded OPCs; [5]): 80.5 % DMSO
- 10 µM (% DMSO) (expanded OPCs; [6]): 61.8 % DMSO

Compound: Nc1ncnc2c1ncn2[C@@H]1O[C@H](CO)[C@@H](O)[C@@H]1O [Vidarabine]
- activation at 0.4 µM ([1]; test compound at 0.4 uM, NCC library screen, sheet "All OLga data", relative to quetiapine, read-out: 0.4 uM (% Quet)): -2.3%
- activation at 2 µM [1, 7]: -12.9%
- viability at 0.1 µM (expanded OPCs; [9]): 90.6%
- viability at 1 µM (expanded OPCs; [10]): 84.9%
- viability at 10 µM (expanded OPCs; [11]): 48.9%

Compound: CNCC(O)c1ccc(O)cc1 (centres unmarked) [Synephrine]
- activation at 2 µM [1, 7]: -7.3%
- activation at 10 µM [1, 8]: 2.8%
- viability at 0.1 µM (expanded OPCs; [9]): 85.8%
- viability at 1 µM (expanded OPCs; [10]): 94.3%
- viability at 10 µM (expanded OPCs; [11]): 93.4%
